Test results taken from patent US12252701B2, “Chimeric antigen receptor T cell therapy” (KITE PHARMA, INC., priority 2020, dated 2025).
pIC50: −log10 of the molar value. Like-named read-outs stand apart in the source and are kept apart here.

Key:
[1] = cited from earlier work
[2] = Clinical pharmacokinetic data converted to in vitro concentrations; details: human, in vivo
Source text: Given the different potencies of the JAK inhibitors and different pharmacokinetic properties for each drug, it was sought to test each drug at a relevant range of physiological concentrations based on clinical dosing and reported pharmacokinetic data from repeat dose studies. Reported Cmax values in patient sera were converted to in vitro concentrations and adjusted for reported plasma protein binding.

[3] = system: CAR-T cells; assay: CAR-T cell expansion assay (KIP-1 or CD3/CD28 stimulation); details: CD3/CD28
[4] = system: CD19 CAR T cells; assay: CAR T cell cytokine production (Luminex) under CD19 K562, KIP-1 or CD2/3/28 stimulation; details: 72 h; for pIC50: Homo sapiens, T-cell
[5] = in vitro; details: human, CAR-T cells

C[C@@H]1C[C@H]2[C@@H]3CCC4=CC(=O)C=C[C@]4(C)[C@@]3(F)[C@@H](O)C[C@]2(C)[C@@]1(O)C(=O)CO [dexamethasone]
Cmax ([1]; human, in vivo): 0.115 µg/mL | Protein binding ([1]; plasma protein binding, reported): 77% | PPB adj. in Vitro concentration [2]: 67.4 nM | clinically relevant dose level (in vitro concentration) [2]: ~70 nM | % viability ([3]; dose 50 nM, day 4): 45.9% | % viability ([3]; dose 50 nM, day 8): 44.4% | % viability ([3]; dose 50 nM, day 12): 74.7% | % viability ([3]; dose 100 nM, day 4): 53.4% | % viability ([3]; dose 100 nM, day 8): 51.3% | % viability ([3]; dose 100 nM, day 12): 66.3% | Suppression of cytokine production, MCP-1, % inh. ([4]; CD3/CD28 stimulation): >80% inh. | Suppression of cytokine production, TNFa, % inh. ([4]; CD3/CD28 stimulation): >50% inh. | pIC50 ([4]; read-out: Suppression of cytokine production, GMCSF (IC50), CD3/CD28 stimulation, 72 h): < 5.00 | pIC50 ([4]; read-out: Suppression of cytokine production, GMCSF (IC50), K562-CD19 stimulation, 72 h): < 5.00 | pIC50 ([4]; read-out: Suppression of cytokine production, GzB (IC50), CD3/CD28 stimulation, 72 h): < 5.00 | pIC50 ([4]; read-out: Suppression of cytokine production, GzB (IC50), K562-CD19 stimulation, 72 h): < 5.00 | pIC50 ([4]; read-out: Suppression of cytokine production, GzB (IC50), KIP-1 stimulation, 72 h): < 5.00 | pIC50 ([4]; read-out: Suppression of cytokine production, IFNg (IC50), CD3/CD28 stimulation, 72 h): < 5.00 | pIC50 ([4]; read-out: Suppression of cytokine production, IFNg (IC50), K562-CD19 stimulation, 72 h): < 5.00 | pIC50 ([4]; read-out: Suppression of cytokine production, IFNg (IC50), KIP-1 stimulation, 72 h): < 5.00 | pIC50 ([4]; read-out: Suppression of cytokine production, IL-2Ra (IC50), CD3/CD28 stimulation, 72 h): < 5.00 | pIC50 ([4]; read-out: Suppression of cytokine production, IL-2Ra (IC50), K562-CD19 stimulation, 72 h): < 5.00 | pIC50 ([4]; read-out: Suppression of cytokine production, IL-8 (IC50), CD3/CD28 stimulation, 72 h): < 5.00 | pIC50 ([4]; read-out: Suppression of cytokine production, IL-8 (IC50), K562-CD19 stimulation, 72 h): < 5.00 | pIC50 ([4]; read-out: Suppression of cytokine production, IL-10 (IC50), CD3/CD28 stimulation, 72 h): < 5.00 | pIC50 ([4]; read-out: Suppression of cytokine production, MIG (IC50), CD3/CD28 stimulation, 72 h): < 5.00 | pIC50 ([4]; read-out: Suppression of cytokine production, MIP-1a (IC50), CD3/CD28 stimulation, 72 h): < 5.00 | pIC50 ([4]; read-out: Suppression of cytokine production, MIP-1a (IC50), K562-CD19 stimulation, 72 h): < 5.00 | pIC50 ([4]; read-out: Suppression of cytokine production, MIP-1a (IC50), KIP-1 stimulation, 72 h): < 5.00 | pIC50 ([4]; read-out: Suppression of cytokine production, MIP-1b (IC50), CD3/CD28 stimulation, 72 h): < 5.00 | pIC50 ([4]; read-out: Suppression of cytokine production, MIP-1b (IC50), K562-CD19 stimulation, 72 h): < 5.00 | pIC50 ([4]; read-out: Suppression of cytokine production, MIP-1b (IC50), KIP-1 stimulation, 72 h): < 5.00 | pIC50 ([4]; read-out: Suppression of cytokine production, Perforin (IC50), CD3/CD28 stimulation, 72 h): < 5.00 | pIC50 ([4]; read-out: Suppression of cytokine production, Perforin (IC50), K562-CD19 stimulation, 72 h): < 5.00 | pIC50 ([4]; read-out: Suppression of cytokine production, Perforin (IC50), KIP-1 stimulation, 72 h): < 5.00 | Suppression of cytokine production, IL-6, % inh. ([4]; KIP-1 stimulation): 66% inh. | Suppression of cytokine production, IL-10, % inh. ([4]; KIP-1 stimulation): 50% inh. | Suppression of cytokine production, MCP-1, % inh. ([4]; KIP-1 stimulation): 66% inh. | Suppression of cytokine production, MIG, % inh. ([4]; KIP-1 stimulation): 50% inh. | Suppression of cytokine production, TNFa, % inh. ([4]; KIP-1 stimulation): 75% inh. | viability at 0 day, 50 nM [5]: 75% | viability at 0 day, 100 nM [5]: 75% | viability at 4 day, 50 nM [5]: 65.9% | viability at 4 day, 100 nM [5]: 52.8% | viability at 8 day, 50 nM [5]: 53.8% | viability at 8 day, 100 nM [5]: 56.6% | viability at 12 day, 50 nM [5]: 67.8% | viability at 12 day, 100 nM [5]: 56.5%
